Read-outs that look alike come from different tables or passages of the source.

Assay [1] has as its system Glomerella Lagenarium (Colletotrichum Lagenarium). Kind of assay: Glomerella lagenarium (Colletotrichum lagenarium) liquid culture / cucumber / preventative (anthracnose). Type of assay: cell-based. The note with it: Colletotrichum orbiculare, read-out: disease control. How it is done: Mycelia fragments or conidia suspensions of a fungus prepared either freshly from liquid cultures of the fungus or from cryogenic storage, are directly mixed into nutrient broth. DMSO solutions of the test compound (max. 10 mg/ml) are diluted with 0.025% Tween20 by a factor of 50 and 10 μl of this solution is pipetted into a microtiter plate (96-well format). The nutrient broth containing the fungal spores/mycelia fragments is then added to give an end concentration of the tested compound. The test plates are incubated in the dark at 24° C. and 96% relative humidity. The inhibition of fungal growth is determined photometrically after 2 to 7 days, depending on the pathosystem, and percent antifungal activity relative to the untreated check is calculated.
Conidia of the fungus from cryogenic storage are directly mixed into nutrient broth (PDB—potato dextrose broth). After placing a (DMSO) solution of test compound into a microtiter plate (96-well format), the nutrient broth containing the fungal spores is added.
The following compounds at 20 ppm in the applied formulation give at least 80% disease control in this test when compared to untreated control under the same conditions, which show extensive disease development.

Assay [2] has as its system Puccinia recondita f. Sp. Tritici. Kind of assay: Puccinia recondita f. sp. tritici / wheat / leaf disc preventative (brown rust). Type of assay: in vivo. The note with it: foliar, 168 h, read-out: disease control. The protocol:
Leaf disks or leaf segments of various plant species are cut from plants grown in a greenhouse. The cut leaf disks or segments are placed in multiwell plates (24-well format) onto water agar. The leaf disks are sprayed with a test solution before (preventative) or after (curative) inoculation. Compounds to be tested are prepared as DMSO solutions (max. 10 mg/ml) which are diluted to the appropriate concentration with 0.025% Tween20 just before spraying. The inoculated leaf disks or segments are incubated under defined conditions (temperature, relative humidity, light, etc.) according to the respective test system. A single evaluation of disease level is carried out 3 to 14 days after inoculation, depending on the pathosystem. Percent disease control relative to the untreated check leaf disks or segments is then calculated.
Wheat leaf segments cv. Kanzler were placed on agar in multiwell plates (24-well format) and sprayed with the formulated test compound diluted in water. The leaf disks were inoculated with a spore suspension of the fungus 1 day after application. The inoculated leaf segments were incubated at 19° C. and 75% relative humidity (rh) under a light regime of 12 hours light/12 hours darkness in a climate cabinet and the activity of a compound was assessed as percent disease control compared to untreated when an appropriate level of disease damage appears in untreated check leaf segments (7 to 9 days after application).
The following compounds at 200 ppm in the applied formulation give at least 80% disease control in this test when compared to untreated control leaf disks under the same conditions, which show extensive disease development.

Where [3] appears, read: 20 ppm in the applied formulation, liquid culture in PDB, 24° C., inhibition of growth measured photometrically 3 to 4 days after application, vs untreated.
[4] abbreviates: 200 ppm in the applied formulation, wheat leaf segments cv. Kanzler, preventative, inoculated 1 day after application, assessed 7 to 9 days after application, vs untreated.

For `COc1cc(Cl)cnc1OCc1cn(Cc2ccc(-c3noc(C(F)(F)F)n3)cc2)nn1` [Compound 1.29, 3-[4-[[4-[(5-chloro-3-methoxy-2-pyridyl)oxymethyl]triazol-1-yl]methyl]phenyl]-5-(trifluoromethyl)-1,2,4-oxadiazole], the inhibition of growth at 20 ppm in assay [1] (setting [3]) is at least 80%. Further, the pest or weed control at 200 ppm in assay [2] (setting [4]) is at least 80%.

With `FC(F)(F)c1nc(-c2ccc(Cn3ccnc3-c3ccccc3)cc2)no1` [Compound 1.47, 3-[4-[(2-phenylimidazol-1-yl)methyl]phenyl]-5-(trifluoromethyl)-1,2,4-oxadiazole], the inhibition of growth at 20 ppm in assay [1] (setting [3]) is at least 80%. Further, the pest or weed control at 200 ppm in assay [2] (setting [4]) is at least 80%.

With `FC(F)(F)c1nc(-c2ccc(Cn3c(C(F)(F)F)nc4ccccc43)cc2)no1` [Compound 1.48, 5-(trifluoromethyl)-3-[4-[[2-(trifluoromethyl)benzimidazol-1-yl]methyl]phenyl]-1,2,4-oxadiazole], the inhibition of growth at 20 ppm in assay [1] (setting [3]) is at least 80%. The pest or weed control at 200 ppm in assay [2] (setting [4]) was at least 80%.

Take `CC(=O)c1cn(Cc2ccc(-c3noc(C(F)(F)F)n3)cc2)c2ccccc12` [Compound 1.50, 1-[1-[[4-[5-(trifluoromethyl)-1,2,4-oxadiazol-3-yl]phenyl]methyl]indol-3-yl]ethanone]: in assay [1], the inhibition of growth at 20 ppm is at least 80%. Moreover, the pest or weed control at 200 ppm in assay [2] was at least 80%.

Take `Cc1ccc2c(ccn2Cc2ccc(-c3noc(C(F)(F)F)n3)cc2)c1` [Compound 1.52, 3-[4-[(5-methylindol-1-yl)methyl]phenyl]-5-(trifluoromethyl)-1,2,4-oxadiazole]: in assay [1] (setting [3]), the inhibition of growth at 20 ppm was at least 80%. The pest or weed control at 200 ppm in assay [2] (setting [4]) was at least 80%.

For the molecule `Cc1nccn1Cc1ccc(-c2noc(C(F)(F)F)n2)cc1` [Compound 1.53, 3-[4-[(2-methylimidazol-1-yl)methyl]phenyl]-5-(trifluoromethyl)-1,2,4-oxadiazole], in assay [2] (setting [4]), the pest or weed control at 200 ppm is at least 80%.

As to `COc1ccc2c(c1)c(C=O)cn2Cc1ccc(-c2noc(C(F)(F)F)n2)cc1` [Compound 1.57, 5-methoxy-1-[[4-[5-(trifluoromethyl)-1,2,4-oxadiazol-3-yl]phenyl]methyl]indole-3-carbaldehyde], the inhibition of growth at 20 ppm in assay [1] (setting [3]) was at least 80%. The pest or weed control at 200 ppm in assay [2] (setting [4]) is at least 80%.

With `N#CCc1nc2ccccc2n1Cc1ccc(-c2noc(C(F)(F)F)n2)cc1` [Compound 1.58, 2-[1-[[4-[5-(trifluoromethyl)-1,2,4-oxadiazol-3-yl]phenyl]methyl]benzimidazol-2-yl]acetonitrile], the inhibition of growth at 20 ppm in assay [1] (setting [3]) is at least 80%. Besides, in assay [2] (setting [4]), the pest or weed control at 200 ppm is at least 80%.

`N#Cc1ccn(Cc2ccc(-c3noc(C(F)(F)F)n3)cc2)c1` [Compound 1.60, 1-[[4-[5-(trifluoromethyl)-1,2,4-oxadiazol-3-yl]phenyl]methyl]pyrrole-3-carbonitrile]: the inhibition of growth at 20 ppm in assay [1] (setting [3]) was at least 80%. For the same molecule, the pest or weed control at 200 ppm in assay [2] (setting [4]) was at least 80%.

Take `CCc1nc2ccccc2n1Cc1ccc(-c2noc(C(F)(F)F)n2)cc1` [Compound 1.63, 3-[4-[(2-ethylbenzimidazol-1-yl)methyl]phenyl]-5-(trifluoromethyl)-1,2,4-oxadiazole]: the inhibition of growth at 20 ppm in assay [1] (setting [3]) is at least 80%. For the same molecule, in assay [2] (setting [4]), the pest or weed control at 200 ppm is at least 80%.

On to `Fc1ccc(-c2nccn2Cc2ccc(-c3noc(C(F)(F)F)n3)cc2)cc1` [Compound 1.65, 3-[4-[[2-(4-fluorophenyl)imidazol-1-yl)methyl]phenyl]-5-(trifluoromethyl)-1,2,4-oxadiazole], for which the inhibition of growth at 20 ppm in assay [1] (setting [3]) is at least 80%. For the same molecule, the pest or weed control at 200 ppm in assay [2] (setting [4]) was at least 80%.

As for `FC(F)(F)c1nc(-c2ccc(Cn3c(-c4ccncc4)nc4ccccc43)cc2)no1` [Compound 1.73, 3-[4-[[2-(4-pyridyl)benzimidazol-1-yl]methyl]phenyl]-5-(trifluoromethyl)-1,2,4-oxadiazole], in assay [1] (setting [3]), the inhibition of growth at 20 ppm is at least 80%. Moreover, the pest or weed control at 200 ppm in assay [2] (setting [4]) is at least 80%.

With `O=C1CCc2cn(Cc3ccc(-c4noc(C(F)(F)F)n4)cc3)cc21` [Compound 1.74, 2-[[4-[5-(trifluoromethyl)-1,2,4-oxadiazol-3-yl]phenyl]methyl]-5,6-dihydrocyclopenta[c]pyrrol-4-one], the inhibition of growth at 20 ppm in assay [1] (setting [3]) was at least 80%. Moreover, the pest or weed control at 200 ppm in assay [2] (setting [4]) was at least 80%.

With `COc1ccc2c(ccn2Cc2ccc(-c3noc(C(F)(F)F)n3)cc2)c1` [Compound 1.75, 3-[4-[(5-methoxyindol-1-yl)methyl]phenyl]-5-(trifluoromethyl)-1,2,4-oxadiazole], the inhibition of growth at 20 ppm in assay [1] (setting [3]) is at least 80%. For the same molecule, the pest or weed control at 200 ppm in assay [2] (setting [4]) is at least 80%.

Take `FC(F)(F)c1nc(-c2ccc(Cn3cnc4c(Cl)cccc43)cc2)no1` [Compound 1.94, 3-[4-[(4-chlorobenzimidazol-1-yl)methyl]phenyl]-5-(trifluoromethyl)-1,2,4-oxadiazole]: the inhibition of growth at 20 ppm in assay [1] (setting [3]) is at least 80%. Further, in assay [2] (setting [4]), the pest or weed control at 200 ppm is at least 80%.

With `FC(F)(F)c1nc(-c2ccc(Cn3cnc4cccc(Cl)c43)cc2)no1` [Compound 1.95, 3-[4-[(7-chlorobenzimidazol-1-yl)methyl]phenyl]-5-(trifluoromethyl)-1,2,4-oxadiazole], the inhibition of growth at 20 ppm in assay [1] (setting [3]) was at least 80%. In addition, the pest or weed control at 200 ppm in assay [2] (setting [4]) is at least 80%.

For `Cc1cn(Cc2ccc(-c3noc(C(F)(F)F)n3)cc2Cl)c(C)n1` [Compound 1.105, 3-[3-chloro-4-[(2,4-dimethylimidazol-1-yl)methyl]phenyl]-5-(trifluoromethyl)-1,2,4-oxadiazole], in assay [2] (setting [4]), the pest or weed control at 200 ppm was at least 80%.

Turning to `FC(F)(F)c1nc(-c2ccc(Cn3cnc(Br)c3)c(Cl)c2)no1` [Compound 1.107, 3-[4-[(4-bromoimidazol-1-yl)methyl]-3-chloro-phenyl]-5-(trifluoromethyl)-1,2,4-oxadiazole], the inhibition of growth at 20 ppm in assay [1] (setting [3]) is at least 80%. In assay [2] (setting [4]), the pest or weed control at 200 ppm is at least 80%.

`COC(=O)c1ncn(Cc2ccc(-c3noc(C(F)(F)F)n3)cc2Cl)n1` [Compound 1.108, methyl 1-[[2-chloro-4-[5-(trifluoromethyl)-1,2,4-oxadiazol-3-yl]phenyl]methyl]-1,2,4-triazole-3-carboxylate]: the inhibition of growth at 20 ppm in assay [1] (setting [3]) is at least 80%. Further, the pest or weed control at 200 ppm in assay [2] (setting [4]) is at least 80%.

On to `Cc1cn(Cc2ccc(-c3noc(C(F)(F)F)n3)cc2Cl)cn1` [Compound 1.109, 3-[3-chloro-4-[(4-methylimidazol-1-yl)methyl]phenyl]-5-(trifluoromethyl)-1,2,4-oxadiazole], for which, in assay [1] (setting [3]), the inhibition of growth at 20 ppm is at least 80%. Moreover, in assay [2] (setting [4]), the pest or weed control at 200 ppm was at least 80%.

As to `FC(F)(F)c1nc(-c2ccc(Cn3ccnc3)c(Cl)c2)no1` [Compound 1.112, 3-[3-chloro-4-(imidazol-1-ylmethyl)phenyl]-5-(trifluoromethyl)-1,2,4-oxadiazole], the inhibition of growth at 20 ppm in assay [1] (setting [3]) is at least 80%. In addition, the pest or weed control at 200 ppm in assay [2] (setting [4]) is at least 80%.

For `COC(=O)c1ncn(Cc2ccc(-c3noc(C(F)(F)F)n3)cc2F)n1` [Compound 1.122, methyl 1-[[2-fluoro-4-[5-(trifluoromethyl)-1,2,4-oxadiazol-3-yl]phenyl]methyl]-1,2,4-triazole-3-carboxylate], in assay [1] (setting [3]), the inhibition of growth at 20 ppm is at least 80%. Also, the pest or weed control at 200 ppm in assay [2] (setting [4]) is at least 80%.

For the molecule `Fc1cc(-c2noc(C(F)(F)F)n2)ccc1Cn1cccc2ccnc1-2` [Compound 1.125, 3-[3-fluoro-4-(pyrrolo[2,3-b]pyridin-7-ylmethyl)phenyl]-5-(trifluoromethyl)-1,2,4-oxadiazole], the pest or weed control at 200 ppm in assay [2] (setting [4]) is at least 80%.

Turning to `Cc1nccn1Cc1ccc(-c2noc(C(F)(F)F)n2)cn1` [Compound 1.139, 3-[6-[(2-methylimidazol-1-yl)methyl]-3-pyridyl]-5-(trifluoromethyl)-1,2,4-oxadiazole], the pest or weed control at 200 ppm in assay [2] (setting [4]) is at least 80%.

In the case of `FC(F)(F)c1nc(-c2ccc(CN3CCOCC3)cc2)no1` [Compound 1.301, 4-[[4-[5-(trifluoromethyl)-1,2,4-oxadiazol-3-yl]phenyl]methyl]morpholine], the pest or weed control at 200 ppm in assay [2] (setting [4]) was at least 80%.

Regarding `C[C@@H]1CN(Cc2ccc(-c3noc(C(F)(F)F)n3)cc2)C[C@@H](C)O1` [Compound 1.308, (2R,6R)-2,6-dimethyl-4-[[4-[5-(trifluoromethyl)-1,2,4-oxadiazol-3-yl]phenyl]methyl]morpholine], the pest or weed control at 200 ppm in assay [2] (setting [4]) is at least 80%.

The values are drawn from patent publication US10798941B2, “Microbiocidal oxadiazole derivatives” (SYNGENTA PARTICIPATIONS AG, priority 2016, dated 2020).
